US20250051263A1, “NOVEL IONIZABLE LIPIDS AND LIPID NANOPARTICLES AND METHODS OF USING THE SAME” (Sail Biomedicines, Inc., priority 2021, published 2025)

Columns and labels:
[1] = LNP size and polydispersity, Zetasizer Ultra; format: physicochemical; conditions: Example 5 LNP lipid:DOPE:Plant Cholesterol:DMPE-PEG2k 35:16:46.5:2.5, FLUC/EPO 1:1 mRNA, N:P 6:1
Source text: (§1) All other compositions (i.e., compositions of MC3 (a commercially available ionizable lipid having a chemical name of (6Z,9Z,28Z,31Z)-heptatriacont-6,9,28,31-tetraene-19-yl 4-(dimethylamino)butanoate, and compositions of novel ionizable lipids 7669, 7671, 7668, 767, 7650) are composed of ionizable lipid:structural lipid:sterol:PEG-lipid (SDA lipid #:DSPC:cholesterol:14:0 PEG2000 PE) at a molar ratio of […], respectively. Lipids are solubilized in ethanol. Compositions are then handled as above, except the formulations are maintained at ionizable lipid to mRNA N:P ratio of 6:1. The lipid mix and mRNA solution are mixed at a 1:3 ratio by volume, respectively, on a NanoAssemblr Ignite (Precision Nanosystems) at a total flow rate of 9 mL/min. Resulting compositions are then loaded into Slide-A-Lyzer G2 dialysis cassettes (10 k MWCO) and dialyzed in 200 times sample volume of 1×PBS for 4 hrs at room temp with gentle stirring. The PBS is refreshed, and the compositions are further dialyzed for at least 14 hrs at 4° C. with gentle stirring. The dialyzed compositions are then collected and concentrated by centrifugation at 2000×g using Amicon Ultra centrifugation filters (100 k MWCO). Concentrated particles are characterized for size, polydispersity, and particle concentration using Zetasizer Ultra (Malvern Panalytical) and for mRNA encapsulation efficiency using Quant-iT RiboGreen RNA Assay Kit (ThermoFisher Scientific).
(§2) The lipid mix and mRNA solution were mixed at a 1:3 ratio by volume, respectively, on the NanoAssemblr Ignite (Precision Nanosystems) at a total flow rate of 9 mL/min. Resulting formulations were then loaded into Slide-A-Lyzer G2 dialysis cassettes (10 k MWCO) and dialyzed in 200 times sample volume of 1×PBS for 2 hrs at room temperature. The PBS was refreshed, and the formulations were further dialyzed for at least 14 hrs at 4° C. with gentle stirring. The dialyzed formulations were then collected and concentrated by centrifugation at 3000×g using Amicon Ultra centrifugation filters (100 k MWCO). The concentrated formulations were characterized for size, polydispersity, and particle concentration using Zetasizer Ultra (Malvern Panalytical) and for mRNA encapsulation efficiency using Quant-iT RiboGreen RNA Assay Kit (ThermoFisher Scientific).
(§3) For each LNP composition, the lipid mix and mRNA solution were mixed at a 1:3 ratio by volume, respectively, on a NanoAssemblr Ignite (Precision Nanosystems) at a total flow rate of 9 mL/min. The resulting compositions were then loaded into Slide-A-Lyzer G2 dialysis cassettes (10 k MWCO) and dialyzed in 200 times sample volume of 1×PBS for 2 hours at room temperature with gentle stirring. The PBS was refreshed, and the compositions were further dialyzed for at least 14 hours at 4° C. with gentle stirring. The dialyzed compositions were then collected and concentrated by centrifugation at 3000×g using Amicon Ultra centrifugation filters (100 k MWCO). The concentrated particles were characterized for size, polydispersity, and particle concentration using Zetasizer Ultra (Malvern Panalytical) and for mRNA encapsulation efficiency using Quant-iT RiboGreen RNA Assay Kit (ThermoFisher Scientific).

[2] = mRNA encapsulation efficiency, Quant-iT RiboGreen RNA Assay; format: physicochemical; conditions: Example 5 LNP lipid:DOPE:Plant Cholesterol:DMPE-PEG2k 35:16:46.5:2.5, FLUC/EPO 1:1 mRNA, N:P 6:1
Source text: as §1, §2, §3

Balb/c mice [3] = test: In-vivo bioluminescent imaging after IV injection of Fluc mRNA LNP; conditions: Example 5 LNP (DOPE 35:16:46.5:2.5), IV, 5 μg FLUC + 5 μg EPO
Experimental: (§4) 8-9 week old female Balb/c mice are utilized for bioluminescence-based ionizable lipid screening efforts. Mice are obtained from Jackson Laboratories (JAX Stock: 000651) and allowed to acclimate for one week prior to manipulations. Animals are placed under a heat lamp for a few minutes before introducing them to a restraining chamber. The tail is wiped with alcohol pads (Fisher Scientific) and 100 μL of a lipid nanoparticle composition descrbed above containing 10 ug total mRNA (5 ug Fluc+5 ug EPO) is injected intravenously using a 29 G insulin syringe (Covidien). Any resulting bleeding is stemmed using a sterile gauze pad (Fisher Scientific) and animals are placed back into their home cage. 4-6 hours post-dose, animals are injected with 200 μL of 15 mg/mL D-Luciferin (GoldBio) and placed in an isoflurane induction chamber set to deliver 2.5% isoflurane delivered at an oxygen flow rate of 1-2 liters per min. After 5 minutes of isoflurane exposure, mice are placed in set nose cones inside the IVIS Lumina LT imager (PerkinElmer). LivingImage software is utilized for imaging. Whole body bio-luminescence is captured at auto-exposure after which animals are removed from the IVIS and placed into a CO2 chamber for euthanasia. Cardiac puncture is performed on each animal after placing it in dorsal recumbency, and blood collection is performed using a 25 G insulin syringe (BD). Blood is collected in Lithium-Heparin coated tubes (Fisher Scientific) and immediately placed on ice. Once all blood samples are collected, tubes are spun at 2000 G for 10 minutes using a tabletop centrifuge and plasma is aliquoted into individual Eppendorf tubes (Fisher Scientific) and stored at −80 C for subsequent EPO quantification. EPO levels in plasma are determined using EPO MSD kit (Meso Scale Diagnostics).
(§5) 8-9 week old female Balb/c mice were utilized for bioluminescence-based ionizable lipid screening efforts. Mice were obtained from Jackson Laboratories (JAX Stock: 000651) and allowed to acclimate for one week prior to manipulations. Animals were placed under a heat lamp for a few minutes before introducing them to a restraining chamber. The tail was wiped with alcohol pads (Fisher Scientific) and, for each LNP composition descrbed above, 100 μL of a lipid nanoparticle composition descrbed above containing 10 μg total mRNA (5 μg Fluc+5 μg EPO, 5 μg Fluc+5 μg Cre, or 5 μg EGFP) was injected intravenously using a 29 G insulin syringe (Covidien).
(§6) 4-6 hours post-dose, animals were injected with 200 μL of 15 mg/mL D-Luciferin (GoldBio), and placed in set nose cones inside the IVIS Lumina LT imager (PerkinElmer). LivingImage software was utilized for imaging. Whole body bio-luminescence was captured at auto-exposure after which animals are removed from the IVIS and placed into a CO2 chamber for euthanasia. Cardiac puncture was performed on each animal after placing it in dorsal recumbency, and blood collection was performed using a 25 G insulin syringe (BD). Once all blood samples were collected, tubes are spun at 2000 G for 10 minutes using a tabletop centrifuge and plasma was aliquoted into individual Eppendorf tubes (Fisher Scientific) and stored at −80° C. for subsequent EPO quantification. EPO levels in plasma were determined using EPO MSD kit (Meso Scale Diagnostics).

Balb/c mice [4] = test: EPO levels in plasma by EPO MSD kit after IV injection of EPO mRNA LNP; format: in vivo; conditions: Example 5 LNP (DOPE 35:16:46.5:2.5), 5 μg FLUC + 5 μg EPO
Experimental: as §4, §5, §6

CCCCCCCCC(CCCCCCCC)OC(=O)CCCCCCCN(CCCCCCCOC(=O)C(CCCCCCCC)CCCCCCCC)CCNC(=O)CCC(=O)NCCN(CCCCCCCOC(=O)C(CCCCCCCC)CCCCCCCC)CCCCCCCC(=O)OC(CCCCCCCC)CCCCCCCC [Compound 2323, 7-[2-[[4-[2-[7-(2-octyldecanoyloxy)heptyl-[8-(1-octylnonoxy)-8-oxo-octyl]amino]ethylamino]-4-oxo-butanoyl]amino]ethyl-[8-(1-octylnonoxy)-8-oxo-octyl]amino]heptyl 2-octyldecanoate]
PDI [1]: 0.14
Size (nm) [1]: 91.0 nm
% EE [2]: 90.7%
Bioluminescence (IV) Liver (Balb/c mice [3]; 4-6 hours post-dose, liver): 3.2E+07
Bioluminescence (IV) Lung (Balb/c mice [3]; 4-6 hours post-dose, lung): 7.7E+03
Bioluminescence (IV) Spleen (Balb/c mice [3]; 4-6 hours post-dose, spleen): 8.7E+05
Bioluminescence (IV) Whole Body (Balb/c mice [3]; 4-6 hours post-dose, whole body): 2.1E+08
Spleen: Liver Ratio (Balb/c mice [3]; ratio of bioluminescence): 0.027
hEPO (Balb/c mice [4]): 3.1E+06
